Like-named read-outs stand apart in the source and are kept apart here.
Tested on: pregnant rats
Type: in vivo, rat
Settings: for Mean Number of Pups / Day of Parturition: pregnant rats; for Day of Parturition: number of animals at day
Description: The test animals received 20 μ in two equal portions, of L-pGlu-L-His-L-Trp-L-Ser-L-Tyr-D-Leu-L-Leu-L-Arg-L-Pro-NH-ethyl as a 0.04 g/l solution in 0.9% aqueous sodium chloride containing 0.1% bovine serum albumin. In all instances, the subcutaneous injections were given on day 18 of gestation.
In a repetition of the procedure of Example 1, the same test was carried out except that the animals were injected on day 19 of gestation.

[1] = same dose s.c. on day 19 of gestation

## CCNC(=O)[C@@H]1CCCN1C(=O)[C@H](CCCNC(=N)N)NC(=O)[C@H](CC(C)C)NC(=O)[C@@H](CC(C)C)NC(=O)[C@H](Cc1ccc(O)cc1)NC(=O)[C@H](CO)NC(=O)[C@H](Cc1c[nH]c2ccccc12)NC(=O)[C@H](Cc1c[nH]cn1)NC(=O)[C@@H]1CCC(=O)N1 [Test compound, L-pGlu-L-His-L-Trp-L-Ser-L-Tyr-D-Leu-L-Leu-L-Arg-L-Pro-NH-ethyl]
20 μ in two equal portions s.c. on day 18 of gestation
  Mean Number of Pups: 8.7
20 μ in two equal portions s.c. on day 18 of gestation, normal pregnancy 21.5 days
  Day of Parturition: 1 at 21; 2 at 20
[1]
  Mean Number of Pups: 9.3
  Day of Parturition: 3 at 21
rat, in vivo
  Condition of pups delivered: healthy and indistinguishable from the control animals' pups
rats, half and two times the dose level of example 1, compared with Table I
  Parturition result at other dose levels: essentially the same result as shown in Table I

Reference: patent US4018914A, “Parturition inducement” (Abbott Laboratories, priority 1975, dated 1977)
